Results from BindingDB's records for patent US20240158355 (Baylor College of Medicine, 2024).

How the values were obtained:
[1] = target: T1, Bromodomain testis-specific protein [44-116] (UniProt Q58F21); test: AlphaScreen Assay
T1 construct: 44-116
Text: (§1) No details are given.

[2] = target: T2, Bromodomain testis-specific protein [287-359] (Homo sapiens, UniProt Q58F21); test: AlphaScreen Assay
T2 construct: 287-359
Text: as §1

Cc1cc(N)ccc1-c1nn(C)c2ccc(-c3cncnc3)cc12 [US20240158355, Compound 76] gave an IC50 [1] of 5.44 µM and an IC50 [2] of 9.48 µM.
